Measured values: patent US5519040A, “Substituted thiazole sulfonamides as antiglaucoma agents” (Allergan, priority 1994, dated 1996)

Experiments:
[1] = target: T1, (Homo sapiens, UniProt P00918); experiment: Carbonic anhydrase activity, micromethod of Maren (time to lower pH of CO2-saturated carbonate/bicarbonate buffer, phenol red endpoint); type: biochemical; settings: pure enzyme from human erythrocyte; 0°-4° C.; pH 9.9 to 6.8
T1 construct: pure CA11 enzyme from human erythrocyte; from tissue; host or cells: human erythrocytes (purified enzyme)
Procedure: 1. Carbonic anhydrase activity was assayed according to the micromethod of Maren (J. PharmacoI. Exptl. Therap., 130, 26-29, 1960). All solutions and reagents were maintained at 0°-4° C. The final assay mixture contained 16 mM phenol red, added enzyme and 62.5 mM sodium carbonate/bicarbonate. Its volume was kept constant at 0.8 mL. The time required for the added enzyme to lower the pH of CO2-saturated carbonate/bicarbonate buffer from pH 9.9 to 6.8 was measured using the color change of phenol red as endpoint. T1 is the time recorded for the reaction containing no enzyme. T2 is the time recorded for the reaction containing pure CA11 enzyme from human erythrocyte, or an unknown amount in a sample. Enzyme activities (unit) were calculated using the formula:
Unit/ug=(T1 -T2)(T2 *ug protein used in assay)
IC50 of a carbonic anhydrase inhibitor is the concentration that lowers the enzyme activity to half.

[2] = Cysteine reactivity probe assay (HPLC); design: unit not given here; settings: cysteine in phosphate buffer pH 7.4, HPLC; unit not given
Source text: An additional measurement made on some compounds of the invention is the cysteine reactivity. This reactivity measurement gives an indication of the likelihood that a compound will react with cysteine residues in the eye, and so is a measure of the likelihood of development of sensitization in the eye to that compound. […] In general, substituents that are more highly electron withdrawing, such as sulfonyl or carbonyl moieties adjacent to the thiazole ring, increase cysteine reactivity.
2. Cysteine reactivity was measured by the following probe assay procedure. Three stock solutions of: A) the CAI compound to be tested in […] phosphate buffer; B) cysteine ([…]) in 50 mM phosphate buffer at pH 7.4; and C) phosphate buffer (50 mM) at pH 7.4, were prepared. Each solution was deoxygenated by bubbling with N2 for 10-15 min.
Reaction mixtures were prepared in triplicate by mixing equal volumes (1 mL) of two stock solutions as follows:
Hydrolytic or other chemical reactivity was detected by comparison of solutions I and II. Cysteine related reactions were detected by comparison of solutions II and III. All samples were assayed using HPLC under constant conditions and over a short period of time to minimize experimental variations in peak heights not related to CAI concentration differences. Each of the three solutions were assayed in sequence to give three sets of experimental values: Ia, IIa, IIIa, Ib, IIb, IIIb, Ic, IIc, IIIc and each set was compared separately. Mean and standard deviations of the three sets were recorded.

| Compound | IC50 [1] | Cysteine reactivity [2] |
| --- | --- | --- |
| CCCCOc1ncc(S(N)(=O)=O)s1 [2-(1-Butoxy)-5-thiazole sulfonamide] | 16 nM | < 0.00005 |
| CCCCC#Cc1ncc(S(N)(=O)=O)s1 [2-(1-Hexynyl)-5-thiazole sulfonamide] | 7.7 nM | 0.001 |
| CCCCCC(O)c1ncc(S(N)(=O)=O)s1 (stereo not shown) [2-(1-Hydroxyhexyl)-5-thiazole sulfonamide] | 10 nM | – |
| NS(=O)(=O)c1cnc(C(=O)C2CC2)s1 [2-(1-Ketocyclopropyl)-5-thiazole sulfonamide] | 3.5 nM | < 0.000024 |
| COCOCC(=O)c1ncc(S(N)(=O)=O)s1 [2-(2-(methoxymethoxy)ethanoyl)-5-thiazole sulfonamide] | 10.3 nM | – |
| CN(C)CCCC(=O)c1ncc(S(N)(=O)=O)s1 [2-(4-(N,N-dimethyl)aminobutanoyl)-5-thiazole sulfonamide] | 26 nM | – |
| CCS(=O)(=O)c1ncc(S(N)(=O)=O)s1 [2-(Ethylsulfonyl)-5-thiazole sulfonamide, 2-Ethylsulfonyl-5-thiazole sulfonamide] | 6.7 nM | reactive |
| CCSc1ncc(S(N)(=O)=O)s1 [2-(Ethylthio)-5-thiazole sulfonamide, 2-Ethylthio-5-thiazole sulfonamide] | 6.3 nM | < 0.0000024 |
| CN(C)CCN(C)S(=O)(=O)c1ncc(S(N)(=O)=O)s1 [2-(N-Methyl-N-(dimethylamino)ethyl)sulfamyl-5-thiazole sulfonamide] | 14.5 nM | reactive |
| CC(C)(C)NS(=O)(=O)c1ncc(S(N)(=O)=O)s1 [2-(N-t-butylsulfamyl)-5-thiazole sulfonamide] | 5.3 nM | – |
| CCCCCC(=O)c1ncc(S(N)(=O)=O)s1 [2-Hexanoyl-5-thiazole sulfonamide, 2-(1-Hexanoyl)-5-thiazole sulfonamide] | 3.5 nM | 0.00007 |
| CCCCCCc1ncc(S(N)(=O)=O)s1 [2-Hexyl-5-thiazole sulfonamide, 2-(1-Hexyl)-5-thiazole sulfonamide] | 20.6 nM | – |
| NS(=O)(=O)c1cnc(-c2ccccc2)s1 [2-Phenyl-5-thiazole sulfonamide] | 20 nM | – |
| NS(=O)(=O)c1cnc([S+]([O-])c2ccccc2)s1 (stereo not shown) [2-Phenylsulfinyl-5-thiazole sulfonamide] | 12.7 nM | reactive |
| NS(=O)(=O)c1cnc(S(=O)(=O)c2ccccc2)s1 [2-Phenylsulfonyl-5-thiazole sulfonamide] | 5.5 nM | reactive |
| NS(=O)(=O)c1cnc(Sc2ccccc2)s1 [2-Phenylthio-5-thiazole sulfonamide, 2-Thiophenyl-5-thiazole sulfonamide] | 5.5 nM | N.R. |
| NS(=O)(=O)c1nc2c(s1)CCCC2 [2-Sulfamyl-4,5,6,7-tetrahydrobenzothiazole] | 15 nM | – |
| NS(=O)(=O)c1nccs1 [2-Thiazole sulfonamide] | 61 nM | N.R. |
| COc1ccc(-c2csc(S(N)(=O)=O)n2)cc1 [4-(4-Methoxyphenyl)-2-thiazole sulfonamide] | 33 nM | – |

| Compound | IC50 [1] | Cysteine reactivity [2] |
| --- | --- | --- |
| CCOC(=O)c1csc(S(N)(=O)=O)n1 [4-Carboethoxy-2-thiazole sulfonamide, 4-carboethoxy-2-thiazole sulfonamide] | 77 nM | < 0.000005 |
| Cc1csc(S(N)(=O)=O)n1 [4-Methyl-2-thiazole sulfonamide] | 120 nM | 0.00005 |
| NS(=O)(=O)c1nc(-c2ccccc2)cs1 [4-Phenyl-2-thiazole sulfonamide] | 20 nM | – |
| CN1CCN(S(=O)(=O)c2ncc(S(N)(=O)=O)s2)CC1 [4-methyl-1-(2-(5-sulfamylthiazoyl)sulfonyl)piperazine] | 9.3 nM | reactive |
| CCCCC#Cc1cnc(S(N)(=O)=O)s1 [5-(1-Hexynyl)-2-thiazole sulfonamide] | 5.6 nM | 0.00019 |
| COC(=O)CCSc1cnc(S(N)(=O)=O)s1 [5-(2-Carbomethoxyethyl)thio-2-thiazole sulfonamide] | 9.1 nM | – |
| NS(=O)(=O)c1ncc(SCCO)s1 [5-(2-Hydroxyethyl)thio-2-thiazole sulfonamide] | 6.6 nM | – |
| CC(=O)OCCCC(=O)c1cnc(S(N)(=O)=O)s1 [5-(4-acetoxybutanoyl)-2-thiazole sulfonamide] | 8.4 nM | reactive |
| CCSc1cnc(S(N)(=O)=O)s1 [5-(Ethylthio)-2-thiazole sulfonamide] | 4.2 nM | 0.000024 |
| NS(=O)(=O)c1ncc(Sc2ccccc2)s1 [5-(Phenylthio)-2-thiazole sulfonamide] | 2.7 nM | 0.005 |
| NS(=O)(=O)c1ncc(C(=O)c2ccccc2)s1 [5-Benzoyl-2-thiazole sulfonamide] | 5 nM | reactive |
| NS(=O)(=O)c1ncc(Cc2ccccc2)s1 [5-Benzyl-2-thiazole sulfonamide] | 9.3 nM | – |
| NS(=O)(=O)c1ncc(Br)s1 [5-Bromo-2-thiazole sulfonamide] | 7.8 nM | – |
| NS(=O)(=O)c1ncc(Cl)s1 [5-Chloro-2-thiazole sulfonamide] | 5.9 nM | 0.00002 |
| COc1ccc(-c2nc(S(N)(=O)=O)sc2Cl)cc1 [5-Chloro-4-(4-methoxyphenyl)-2-thiazole sulfonamide] | 30 nM | – |
| CC[S+]([O-])c1cnc(S(N)(=O)=O)s1 (stereo not shown) [5-Ethylsufinyl-2-thiazole sulfonamide, 5-Ethylsulfinyl-2-thiazole sulfonamide] | 11.4 nM | reactive |
| Cc1sc(S(N)(=O)=O)nc1-c1ccccc1 [5-Methyl-4-phenyl-2-thiazole sulfonamide] | 84 nM | N.R. |
| NS(=O)(=O)c1ncc(-c2ccccc2)s1 [5-Phenyl-2-thiazole sulfonamide] | 6 nM | – |
| NS(=O)(=O)c1ncc(S(=O)(=O)c2ccccc2)s1 [5-Phenylsulfonyl-2-thiazole sulfonamide, 5-(Phenylsulfonyl)-2-thiazole sulfonamide] | 6 nM | reactive |
